Patent publication US9296723B2, “NAMPT inhibitors” (AbbVie Inc., priority 2012, dated 2016)

Columns and labels:
[1] = target: T1, NAMPT (Homo sapiens, UniProt P43490); test: Time-Resolved Fluorescence Resonance Energy Transfer (TR-FRET) Binding Assay of NAMPT; details: 6.8 nM NAMPT, 200 nM probe, equilibrated 3 hours, no substrates
Method in brief: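 IC50s come from four-parameter logistic fits of control-normalized Em520/Em495 TR-FRET ratios (Ex 337 nm) against compound concentration. Before reading, enzyme, probe, antibody and compound equilibrated for 3 h at room temperature.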

[2] = target: T1, NAMPT; test: TR-FRET Binding Assay of NAMPT with PRPP; details: 2 nM NAMPT, 2 nM probe, 200 µM PRPP and 2.5 mM ATP, equilibrated 16 hours
Description: Time-Resolved Fluorescence Resonance Energy Transfer (TR-FRET) Binding Assay of NAMPT with PRPP
Compound handling and data processing were identical to the assay in the absence of substrates (above). Final concentrations were 1× assay buffer, 2% DMSO, 2 nM NAMPT, 2 nM probe, 1 nM Tb-anti-His antibody (Invitrogen #PV5895), 200 µM PRPP and 2.5 mM ATP. Reactions were equilibrated for 16 hours prior to measurement to allow for potential enzymatic modification of test compounds.

T1 sequence (P43490 whole entry): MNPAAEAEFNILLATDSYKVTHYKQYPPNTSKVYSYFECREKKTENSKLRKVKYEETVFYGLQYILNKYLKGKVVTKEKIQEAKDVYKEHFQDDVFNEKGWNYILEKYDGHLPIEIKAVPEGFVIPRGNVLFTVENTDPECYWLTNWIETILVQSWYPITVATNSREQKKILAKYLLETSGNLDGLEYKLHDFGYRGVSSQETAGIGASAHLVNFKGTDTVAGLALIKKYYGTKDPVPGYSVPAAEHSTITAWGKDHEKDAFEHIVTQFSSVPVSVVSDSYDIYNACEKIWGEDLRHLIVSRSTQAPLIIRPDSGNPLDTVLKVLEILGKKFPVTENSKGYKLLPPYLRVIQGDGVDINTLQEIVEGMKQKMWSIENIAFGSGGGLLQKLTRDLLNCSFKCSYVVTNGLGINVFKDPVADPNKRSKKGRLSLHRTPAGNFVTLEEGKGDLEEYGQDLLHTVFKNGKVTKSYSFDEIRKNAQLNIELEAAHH

SMILES	IC50 [1]	IC50 [2]
O=C(Nc1ccc(C2CN(C(=O)C3CCCCC3)C2)cc1)N1CC(c2cccnc2)C1 [Example 211, N-{4-[1-(cyclohexylcarbonyl)azetidin-3-yl]phenyl}-3-(pyridin-3-yl)azetidine-1-carboxamide]	55.9 nM	0.341 nM
O=C(Nc1ccc(C2CCN(CCC3CC3)CC2)cc1)N1CC(c2cccnc2)C1 [Example 242, N-{4-[1-(2-cyclopropylethyl)piperidin-4-yl]phenyl}-3-(pyridin-3-yl)azetidine-1-carboxamide]	374 nM	0.225 nM
O=C(CC1CCCC1)N1CC(c2ccc(NC(=O)N3CC(c4cccnc4)C3)cc2)C1 [Example 229, N-{4-[1-(cyclopentylacetyl)azetidin-3-yl]phenyl}-3-(pyridin-3-yl)azetidine-1-carboxamide]	40.3 nM	0.314 nM
CCC(C)(C)CN1CC(c2ccc(NC(=O)N3CC(c4cccnc4)C3)cc2)C1 [Example 257, N-{4-[1-(2,2-dimethylbutyl)azetidin-3-yl]phenyl}-3-(pyridin-3-yl)azetidine-1-carboxamide]	598 nM	0.223 nM
CC(=O)N[C@@H](CC(C)C)C(=O)N1CC(c2ccc(NC(=O)N3CC(c4cccnc4)C3)cc2)C1 [Example 209, N-{4-[1-(N-acetyl-L-leucyl)azetidin-3-yl]phenyl}-3-(pyridin-3-yl)azetidine-1-carboxamide]	24 nM	0.694 nM
O=C(Nc1ccc(C2CCN(CC3CCCCC3)CC2)cc1)N1CC(c2cccnc2)C1 [Example 232, N-{4-[1-(cyclohexylmethyl)piperidin-4-yl]phenyl}-3-(pyridin-3-yl)azetidine-1-carboxamide]	352 nM	0.181 nM
CCOCCC(=O)N1CC(c2ccc(NC(=O)N3CC(c4cccnc4)C3)cc2)C1 [Example 203, N-{4-[1-(3-ethoxypropanoyl)azetidin-3-yl]phenyl}-3-(pyridin-3-yl)azetidine-1-carboxamide]	250 nM	0.427 nM
CC1(C(=O)N2CC(c3ccc(NC(=O)N4CC(c5cccnc5)C4)cc3)C2)CC1 [Example 227, N-(4-{1-[(1-methylcyclopropyl)carbonyl]azetidin-3-yl}phenyl)-3-(pyridin-3-yl)azetidine-1-carboxamide]	69.2 nM	0.294 nM
CCOCC(=O)N1CC(c2ccc(NC(=O)N3CC(c4cccnc4)C3)cc2)C1 [Example 207, N-{4-[1-(ethoxyacetyl)azetidin-3-yl]phenyl}-3-(pyridin-3-yl)azetidine-1-carboxamide]	451 nM	0.37 nM
CCCC(C)CN1CCC(c2ccc(NC(=O)N3CC(c4cccnc4)C3)cc2)CC1 (centres unmarked) [Example 234, N-{4-[1-(2-methylpentyl)piperidin-4-yl]phenyl}-3-(pyridin-3-yl)azetidine-1-carboxamide]	760 nM	0.529 nM
CC(C)(C)CN1CC(c2ccc(NC(=O)N3CC(c4cccnc4)C3)cc2)C1 [Example 254, N-{4-[1-(2,2-dimethylpropyl)azetidin-3-yl]phenyl}-3-(pyridin-3-yl)azetidine-1-carboxamide]	246 nM	0.174 nM
CC(=O)N1CC(c2ccc(NC(=O)N3CC(c4cccnc4)C3)cc2)C1 [Example 217, N-[4-(1-acetylazetidin-3-yl)phenyl]-3-(pyridin-3-yl)azetidine-1-carboxamide]	278 nM	0.32 nM
O=C(Nc1ccc(C2CN(C(=O)c3nccs3)C2)cc1)N1CC(c2cccnc2)C1 [Example 228, 3-(pyridin-3-yl)-N-{4-[1-(1,3-thiazol-2-ylcarbonyl)azetidin-3-yl]phenyl}azetidine-1-carboxamide]	19.6 nM	0.31 nM
O=C(CCC(F)(F)F)N1CC(c2ccc(NC(=O)N3CC(c4cccnc4)C3)cc2)C1 [Example 213, 3-(pyridin-3-yl)-N-{4-[1-(4,4,4-trifluorobutanoyl)azetidin-3-yl]phenyl}azetidine-1-carboxamide]	87.3 nM	0.352 nM
CC(C)C(C)C(=O)N1CC(c2ccc(NC(=O)N3CC(c4cccnc4)C3)cc2)C1 (centres unmarked) [Example 230, N-{4-[1-(2,3-dimethylbutanoyl)azetidin-3-yl]phenyl}-3-(pyridin-3-yl)azetidine-1-carboxamide]	38.8 nM	0.305 nM
CC(C)(C)CC(=O)N1CC(c2ccc(NC(=O)N3CC(c4cccnc4)C3)cc2)C1 [Example 205, N-{4-[1-(3,3-dimethylbutanoyl)azetidin-3-yl]phenyl}-3-(pyridin-3-yl)azetidine-1-carboxamide]	42.6 nM	0.242 nM
O=C(Nc1ccc(C2CN(C(=O)c3ccsc3)C2)cc1)N1CC(c2cccnc2)C1 [Example 219, 3-(pyridin-3-yl)-N-{4-[1-(thiophen-3-ylcarbonyl)azetidin-3-yl]phenyl}azetidine-1-carboxamide]	19.4 nM	0.29 nM
O=C(CN1CCOCC1)N1CC(c2ccc(NC(=O)N3CC(c4cccnc4)C3)cc2)C1 [Example 221, N-{4-[1-(morpholin-4-ylacetyl)azetidin-3-yl]phenyl}-3-(pyridin-3-yl)azetidine-1-carboxamide]	152 nM	0.319 nM
CC(C)CCN1CCC(c2ccc(NC(=O)N3CC(c4cccnc4)C3)cc2)CC1 [Example 236, N-{4-[1-(3-methylbutyl)piperidin-4-yl]phenyl}-3-(pyridin-3-yl)azetidine-1-carboxamide]	667 nM	0.21 nM
CC1CC1C(=O)N1CC(c2ccc(NC(=O)N3CC(c4cccnc4)C3)cc2)C1 (centres unmarked) [Example 199, N-(4-{1-[(2-methylcyclopropyl)carbonyl]azetidin-3-yl}phenyl)-3-(pyridin-3-yl)azetidine-1-carboxamide]	128 nM	0.356 nM
Cc1ccc(C(=O)N2CC(c3ccc(NC(=O)N4CC(c5cccnc5)C4)cc3)C2)s1 [Example 223, N-(4-{1-[(5-methylthiophen-2-yl)carbonyl]azetidin-3-yl}phenyl)-3-(pyridin-3-yl)azetidine-1-carboxamide]	21.6 nM	0.391 nM
CCCCN1CCC(c2ccc(NC(=O)N3CC(c4cccnc4)C3)cc2)CC1 [Example 240, N-[4-(1-butylpiperidin-4-yl)phenyl]-3-(pyridin-3-yl)azetidine-1-carboxamide]	603 nM	0.466 nM
Cn1cccc1C(=O)N1CC(c2ccc(NC(=O)N3CC(c4cccnc4)C3)cc2)C1 [Example 225, N-(4-{1-[(1-methyl-1H-pyrrol-2-yl)carbonyl]azetidin-3-yl}phenyl)-3-(pyridin-3-yl)azetidine-1-carboxamide]	14 nM	0.268 nM
CC(C)CCC(=O)N1CC(c2ccc(NC(=O)N3CC(c4cccnc4)C3)cc2)C1 [Example 201, N-{4-[1-(4-methylpentanoyl)azetidin-3-yl]phenyl}-3-(pyridin-3-yl)azetidine-1-carboxamide]	43.2 nM	0.313 nM
CCC(C)(C)CN1CCC(c2ccc(NC(=O)N3CC(c4cccnc4)C3)cc2)CC1 [Example 244, N-{4-[1-(2,2-dimethylbutyl)piperidin-4-yl]phenyl}-3-(pyridin-3-yl)azetidine-1-carboxamide]	1170 nM	0.516 nM
